Where two headings read alike, the source gives them in different places. Where a SMILES comes first, the peptide text is derived from it.
Legend:
[1] = tested on: Staphylococcus aureus; assay: Microbicidal activity of the myeloperoxidase system (p-MPO, glucose oxidase, glucose) with amino acids in the presence of blood, CFU plate counts; synergy determination from these CFU; type: cell-based; conditions: for Average Viability CFU/ml 60 min / Log Reduction 60 min / Log 10 (CFU + 1) Survivors 60 min: amino acid 5 mM (none: 0 mM); for Average Viability CFU/ml 50 min / Log Reduction 50 min: MPO 4.7 U/ml, GO 4.2 U/ml
How it was run: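 Staphylococcus aureus grown 24 hours in TSB at 35° C was washed in saline and added at a final 2-3×10^7 CFU per mL. The bacteria were mixed in 1 mL reactions with porcine myeloperoxidase, glucose oxidase, amino acids, 150 mM sodium chloride and 3% venous whole blood. Adding glucose to 150 mM started killing. After catalase addition, survivors were counted by serial dilution plating on TSA at 37° C for 24 hours.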

[2] = tested on: Staphylococcus aureus; assay: Control: microbicidal activity of the amino acid or analogue alone (no glucose, MPO, glucose oxidase) in the presence of blood; type: cell-based; conditions: for log reduction at 5000 µM: Staphylococcus aureus, 1 h, read-out: Log Reduction 60 min
Source text: As a control to determine the microbicidal activity of the amino acids alone, the foregoing procedure was followed without replication, except in the absence of glucose, MPO, and glucose oxidase.

[3] = MPO 100 μg/mL, AA 20 mM, 30 min
[4] = MPO 100 μg/mL, AA 20 mM, 60 min
[5] = Table 4, MPO 38 U/ml, GO 33.3 U/ml, blood
[6] = Table 10, single amino acid 2.5 mM, in the presence of blood, 50 min
[7] = amino acid alone 5 mM, MPO 0, GO 0, no glucose, blood, without replication
[8] = Table 2, MPO 38 U/ml, GO 33.3 U/ml, blood
[9] = Table 3, MPO 38 U/ml, GO 33.3 U/ml, blood
[10] = Table 13, single amino acid 2.5 mM, in the presence of blood, 50 min
[11] = Table 14, single amino acid 2.5 mM, in the presence of blood, 50 min
[12] = Table 11, single amino acid 2.5 mM, in the presence of blood, 50 min
[13] = Table 19, amino acid 3.5 mM, 50 min
[14] = single amino acid 2.5 mM, blood

Row | SMILES | Log 10 (CFU + 1) Survivors ([1]; MPO 25 μg/mL, AA 5 mM, 30 min) | Log 10 (CFU + 1) Survivors ([1]; MPO 25 μg/mL, AA 5 mM, 60 min) | Log 10 (CFU + 1) Survivors ([1]; MPO 25 μg/mL, AA […], 30 min) | Log 10 (CFU + 1) Survivors ([1]; MPO 25 μg/mL, AA […], 60 min) | Log 10 (CFU + 1) Survivors ([1]; MPO 100 μg/mL, AA 5 mM, 30 min) | Log 10 (CFU + 1) Survivors ([1]; MPO 100 μg/mL, AA 5 mM, 60 min) | Log 10 (CFU + 1) Survivors [1, 3] | Log 10 (CFU + 1) Survivors [1, 4] | Average Viability CFU/ml 50 min [1, 6] | Log Reduction 50 min [1, 6] | log reduction at 5000 µM [2, 7] | Average Viability CFU/ml 60 min [2, 7] | Average Viability CFU/ml 60 min [1, 8] | Log 10 (CFU + 1) Survivors 60 min [1, 8] | Log Reduction 60 min [1, 8] | Average Viability CFU/ml 60 min [1, 9] | Log 10 (CFU + 1) Survivors 60 min [1, 9] | Log Reduction 60 min [1, 9] | Average Viability CFU/ml 50 min [1, 10] | Log Reduction 50 min [1, 10] | other results
1 | COC(=O)[C@H](C)N [L-Ala methyl ester, L-Alanine methyl ester] | 7.3 | 0.0 | 7.3 | 0.0 | 0.0 | 0.0 | 0.0 | 0.0 | 7250000 CFU/ml | 0.5 | 0 | 24300000 CFU/ml | – | – | – | – | – | – | – | – | Average Viability CFU/ml 60 min [1, 5]: 0 CFU/ml; Log Reduction 60 min [1, 5]: 7.4
2 | C[C@H](N)C(=O)N[C@@H](C)C(=O)O [L-Ala-L-ala] (H-Ala-Ala-OH) | – | – | – | – | – | – | – | – | – | – | – | 26100000 CFU/ml | – | – | – | – | – | – | – | – | Average Viability CFU/ml 60 min [1, 5]: 238500 CFU/ml; Log Reduction 60 min [1, 5]: 2.0; Log Reduction 60 min [2, 7]: 0.0
3 | N=C(N)NCCC[C@H](N)C(=O)O [L-Arginine] | – | – | – | – | – | – | – | – | – | – | – | 23600000 CFU/ml | 5450000 CFU/ml | 6.7 | 0.6 | – | – | – | – | – | enhancement of MPO microbicidal activity (in words) ([1]; amino acid 5 mM, MPO 38 U/ml, GO 33.3 U/ml, blood): essentially inactive; log reduction at 5000 µM [2]: 0
4 | NC(=O)C[C@H](N)C(=O)O [L-Asparagine] | – | – | – | – | – | – | – | – | – | – | 0 | 21800000 CFU/ml | – | – | – | 5950000 CFU/ml | 6.8 | 0.6 | – | – | –
5 | N[C@@H](CC(=O)O)C(=O)O [L-Aspartic acid] | 7.1 | 7.0 | 7.0 | 6.9 | 7.0 | 5.8 | 7.0 | 6.8 | 6900000 CFU/ml | 0.6 | 0.1 | 18600000 CFU/ml | – | – | – | 620000 CFU/ml | 5.8 | 1.5 | 4700000 CFU/ml | 0.7 | –
6 | N[C@@H](CS)C(=O)O [L-Cysteine] | – | – | – | – | – | – | – | – | – | – | 0 | 22400000 CFU/ml | 17400000 CFU/ml | 7.2 | 0.1 | – | – | – | – | – | –
7 | N[C@@H](CCC(=O)O)C(=O)O [L-Glutamic acid] | 7.1 | 7.0 | 7.3 | 6.7 | 6.9 | 2.8 | 7.3 | 6.0 | 10850000 CFU/ml | 0.4 | – | 23700000 CFU/ml | 236 CFU/ml | 2.4 | 5.0 | – | – | – | 11800000 CFU/ml | 0.3 | Average Viability CFU/ml 50 min [1, 11]: 13700000 CFU/ml; Log Reduction 50 min [1, 11]: 0.3; log reduction at 5000 µM [2]: 0
8 | NC(=O)CC[C@H](N)C(=O)O [L-Glutamine] | 7.3 | 7.1 | 6.8 | 7.0 | 7.2 | 0.0 | 7.0 | 5.2 | 14350000 CFU/ml | 0.2 | 0 | 24100000 CFU/ml | 286 CFU/ml | 2.5 | 4.9 | – | – | – | 12550000 CFU/ml | 0.3 | –
9 | N[C@@H](Cc1c[nH]cn1)C(=O)O [L-Histidine] | 7.3 | 7.3 | 7.3 | 7.3 | 6.8 | 4.7 | 7.3 | 7.3 | 7000000 CFU/ml | 0.5 | 0 | 22700000 CFU/ml | 48000 CFU/ml | 4.7 | 2.7 | – | – | – | 4750000 CFU/ml | 0.7 | Average Viability CFU/ml 50 min [1, 12]: 7000000 CFU/ml; Log Reduction 50 min [1, 12]: 0.6
10 | O=C(O)[C@@H]1C[C@@H](O)CN1 [L-Hydroxyproline] | 7.3 | 7.3 | 7.4 | 6.1 | 7.2 | 0.9 | 7.2 | 7.3 | 13100000 CFU/ml | 0.3 | – | 20400000 CFU/ml | – | – | – | 0 CFU/ml | 0.0 | 7.3 | 11450000 CFU/ml | 0.3 | Average Viability CFU/ml 50 min [1, 11]: 11550000 CFU/ml; Log Reduction 50 min [1, 11]: 0.4; log reduction at 5000 µM [2]: 0
11 | CC[C@H](C)[C@H](N)C(=O)O [L-Isoleucine] | 0.0 | 0.0 | 2.1 | 0.0 | 0.0 | 0.0 | 0.0 | 0.0 | 159500 CFU/ml | 2.2 | 0 | 20500000 CFU/ml | – | – | – | 0 CFU/ml | 0.0 | 7.3 | – | – | Average Viability CFU/ml 50 min [1, 12]: 155500 CFU/ml; Log Reduction 50 min [1, 12]: 2.2; Average Viability CFU/ml 50 min [1, 11]: 117000 CFU/ml; Log Reduction 50 min [1, 11]: 2.4; Average Viability CFU/ml 50 min [1, 13]: 129333 CFU/ml; Log Reduction 50 min [1, 13]: 2.3; Average Viability CFU/ml 50 min [1, 14]: 73000 CFU/ml; Log Reduction 50 min [1, 14]: 2.5

Reference: patent US8945540B2, “Compositions for enhancing the antibacterial activity of myeloperoxidase and methods of use thereof” (Exoxemis, Inc., priority 2008, dated 2015)
